Laboratory results taken from US11401246B2, “Triazole glycolate oxidase inhibitors” (CANTERO THERAPEUTICS, INC., priority 2018, dated 2022).

Target: T1, human glycolate oxidase (hGO) (Homo sapiens, UniProt Q9UJM8)
T1 construct: His-tag (6 histidines, pET-15b) (N); made in house; host or cells: E. coli BL21 (DE3)
T1 sequence (Q9UJM8 1-370): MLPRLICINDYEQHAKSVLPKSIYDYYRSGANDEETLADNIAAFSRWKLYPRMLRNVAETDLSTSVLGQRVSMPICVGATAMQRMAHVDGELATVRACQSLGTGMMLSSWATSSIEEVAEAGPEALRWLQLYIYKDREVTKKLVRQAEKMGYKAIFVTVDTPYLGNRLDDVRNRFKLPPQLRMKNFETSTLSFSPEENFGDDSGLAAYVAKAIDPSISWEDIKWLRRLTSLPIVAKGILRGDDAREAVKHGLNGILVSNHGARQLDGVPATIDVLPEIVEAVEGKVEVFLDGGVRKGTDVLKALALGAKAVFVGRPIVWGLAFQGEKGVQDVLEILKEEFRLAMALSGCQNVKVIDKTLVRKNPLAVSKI
Assay: In vitro inhibition of human glycolate oxidase (enzymatic assay, HRP-coupled Trinder reaction);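 note: values are IC50 potency bins despite the % Inhibition label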
Type: biochemical
Conditions: recombinant hGO, 40 mM glycolic acid, pH 7, read at 515 nm, 1 minute after initiation of Trinder reaction; read-out: % Inhibition
From the text: The catalytic reactions used for assaying glycolate oxidase activity in the presence of compounds according to the present disclosure are outlined in FIG. 2. Glycolate oxidase (GO)-catalyzed conversion of glycolate to glyoxylate (top reaction), with the concomitant reduction of the cofactor flavin mononucleotide (FMN), uses molecular oxygen (O2) for recovering its oxidative state, releasing hydrogen peroxide (H2O2). The Trinder reaction (bottom reaction), in which horseradish peroxidase (HRP) uses hydrogen peroxide, 4-aminoantipyrine and a phenol derivative (sulphonated DCIP) to generate a quinoneimine dye that is spectrophotometrically measured.
Human glycolate oxidase (hGO) expression. BL21 (DE3) E. coli transformed with recombinant pET-15b expression vector with the N-terminal His-tag human Hao1 cDNA was grown in LB medium in the presence of 0.1 mg/ml ampicillin. For purification of recombinant human glycolate oxidase (hGO) expressed in BL21 E. coli, bacteria pellets were thawed and re-suspended in 2 ml lysis buffer (50 mM NaH2PO4, 300 mM NaCl, 10 mM imidazole, 50 μM FMN, pH 7.5), and then treated for 30 minutes with 1 mM PMSF for protease inhibition, 0.1% Triton X-100 and 0.2 mg/ml lysozyme to break cellular membranes. After sonication, cells were centrifuged and the supernatant containing the total cellular extract (pre-column fraction) was loaded into a Ni-NTA agarose column and incubated for 30 minutes at 4° C. to allow binding of the 6 histidine tail of recombinant GO protein to the nickel ions. The column was washed with two bed volumes of lysis buffer with 20 mM imidazole to eliminate unbound proteins (wash fraction). GO was eluted using the same buffer with 300 mM imidazole. Fraction containing purified GO was dialyzed against 300 ml of dialysis buffer (50 mM NaH2PO4, 300 mM NaCl, pH 7.5) at 4° C. in agitation overnight, and then kept at 4° C. in darkness. Protein were quantified by the bicinchoninic acid (BCA) assay.
Enzymatic assays. Enzymatic activity of hGO was determined in the presence of glycolate as substrate (40 mM glycolic acid) and phosphate buffer (50 mM KPO4, 0.1 mM EDTA, pH 7). The production of glyoxylate was indirectly measured by the quantification of hydrogen peroxide formed during the first oxidation reaction. […] Enzymatic activity was calculated at 1 minute after initiation of the Trinder reaction.

Row | Compound | IC50 [nM]
1 | O=C(O)c1nn[nH]c1Oc1ccc(-c2ccnc3ccccc23)cc1 [Example 83, 5-(4-(quinolin-4-yl)phenoxy)-1H-1,2,3-triazole-4-carboxylic Acid] | < 100
2 | O=C(O)c1[nH]nnc1Oc1ccc(C2CCC(F)(F)CC2)cc1 [Example 87, 5-(4-(4,4-difluorocyclohexyl)phenoxy)-1H-1,2,3-triazole-4-carboxylic Acid] | 100 to 200
3 | O=C(O)c1nn[nH]c1Oc1ccc(-c2cccnc2Cl)cc1 [Example 93, 5-(4-(2-chloropyridin-3-yl)phenoxy)-1H-1,2,3-triazole-4-carboxylic Acid] | < 100
4 | O=C(O)c1nn[nH]c1Oc1ccc(-c2cccc3ccccc23)cc1 [Example 94, 5-(4-(1-naphthyl)phenoxy)-1H-1,2,3-triazole-4-carboxylic Acid] | < 100
5 | O=C(O)c1nn[nH]c1Oc1ccc(Br)c(C(F)(F)F)c1 [Example 95, 5-(4-bromo-3-(trifluoromethyl)phenoxy)-1H-1,2,3-triazole-4-carboxylic Acid] | > 200
6 | O=C(O)c1nn[nH]c1Oc1ccc(-c2cncc3ccccc23)cc1 [Example 96, 5-(4-(isoquinolin-4-yl)phenoxy)-1H-1,2,3-triazole-4-carboxylic Acid] | 100 to 200
7 | O=C(O)c1nn[nH]c1Oc1ccc(C2CCSCC2)cc1 [Example 97, 5-(4-(tetrahydro-2H-thiopyran-4-yl)phenoxy)-1H-1,2,3-triazole-4-carboxylic Acid] | 100 to 200
8 | O=C(O)c1nn[nH]c1Oc1ccc(-c2cccnc2F)cc1F [Example 98, 5-(2-fluoro-4-(2-fluoropyridin-3-yl)phenoxy)-1H-1,2,3-triazole-4-carboxylic Acid] | < 100
9 | COc1ccc(-c2ccc(Oc3[nH]nnc3C(=O)O)cc2)cn1 [Example 100, 5-(4-(6-methoxypyridin-3-yl)phenoxy)-1H-1,2,3-triazole-4-carboxylic Acid] | < 100
10 | CS(=O)(=O)Nc1ccc(-c2ccc(Oc3[nH]nnc3C(=O)O)cc2)cc1 [Example 102, 5-((4′-(methylsulfonamido)-[1,1′-biphenyl]-4-yl)oxy)-1H-1,2,3-triazole-4-carboxylic Acid] | < 100
11 | O=C(O)c1nn[nH]c1Oc1ccc(-c2ccc(C(F)(F)F)cc2)cc1F [Example 104, 5-((3-fluoro-4′-(trifluoromethyl)-[1,1′-biphenyl]-4-yl)oxy)-1H-1,2,3-triazole-4-carboxylic Acid] | 100 to 200
12 | CS(=O)(=O)c1ccc(-c2ccc(Oc3[nH]nnc3C(=O)O)c(F)c2)cc1 [Example 105, 5-((3-fluoro-4′-(methylsulfonyl)-[1,1′-biphenyl]-4-yl)oxy)-1H-1,2,3-triazole-4-carboxylic Acid] | 100 to 200
13 | CC(C)(C)c1ccc(-c2ccc(Oc3[nH]nnc3C(=O)O)c(F)c2)cc1 [Example 106, 5-((4′-(tert-butyl)-3-fluoro-[1,1′-biphenyl]-4-yl)oxy)-1H-1,2,3-triazole-4-carboxylic Acid] | 100 to 200
14 | CC(C)c1ccc(-c2ccc(Oc3[nH]nnc3C(=O)O)c(F)c2)cc1 [Example 107, 5-((3-fluoro-4′-isopropyl-[1,1′-biphenyl]-4-yl)oxy)-1H-1,2,3-triazole-4-carboxylic Acid] | 100 to 200
15 | CC(C)Cc1ccc(-c2ccc(Oc3[nH]nnc3C(=O)O)cc2)cc1 [Example 108, 5-((4′-isobutyl-[1,1′-biphenyl]-4-yl)oxy)-1H-1,2,3-triazole-4-carboxylic Acid] | > 200
16 | CC(C)c1cccc(-c2ccc(Oc3[nH]nnc3C(=O)O)cc2)c1 [Example 109, 5-((3′-isopropyl-[1,1′-biphenyl]-4-yl)oxy)-1H-1,2,3-triazole-4-carboxylic Acid] | > 200
17 | CC(C)c1ccc(-c2cccc(Oc3[nH]nnc3C(=O)O)c2)cc1 [Example 111, 5-((4′-isopropyl-[1,1′-biphenyl]-3-yl)oxy)-1H-1,2,3-triazole-4-carboxylic Acid] | 100 to 200
18 | O=C(O)c1nn[nH]c1Oc1ccc(-c2cccc(C(F)(F)F)c2)cc1 [Example 112, 5-((3′-(trifluoromethyl)-[1,1′-biphenyl]-4-yl)oxy)-1H-1,2,3-triazole-4-carboxylic Acid] | 100 to 200
19 | CC(C)c1ccc(-c2ccc(Sc3[nH]nnc3C(=O)O)cc2)cc1 [Example 113, 5-((4′-isopropyl-[1,1′-biphenyl]-4-yl)thio)-1H-1,2,3-triazole-4-carboxylic Acid] | 100 to 200
20 | O=C(O)c1nn[nH]c1Oc1cccc(-c2ccc(C(F)(F)F)cc2)c1 [Example 114, 5-((4′-(trifluoromethyl)-[1,1′-biphenyl]-3-yl)oxy)-1H-1,2,3-triazole-4-carboxylic Acid] | 100 to 200
21 | O=C(O)c1nn[nH]c1Sc1ccc(-c2ccc(C(F)(F)F)cc2)cc1 [Example 115, 5-((4′-(trifluoromethyl)-[1,1′-biphenyl]-4-yl)thio)-1H-1,2,3-triazole-4-carboxylic Acid] | 100 to 200

Next, values leading:

Row | IC50 [nM] | Compound
22 | < 100 | Cc1cc(-c2ccc(Oc3[nH]nnc3C(=O)O)cc2)cnc1F [Example 82, 5-(4-(6-fluoro-5-methylpyridin-3-yl)phenoxy)-1H-1,2,3-triazole-4-carboxylic Acid]
23 | 100 to 200 | Cc1ccc(-c2ccc(Oc3[nH]nnc3C(=O)O)cc2)cn1 [Example 84, 5-(4-(6-methylpyridin-3-yl)phenoxy)-1H-1,2,3-triazole-4-carboxylic Acid]
24 | 100 to 200 | Cc1cc(Oc2[nH]nnc2C(=O)O)ccc1-c1ccc(F)nc1C [Example 85, 5-(4-(6-fluoro-2-methylpyridin-3-yl)-3-methylphenoxy)-1H-1,2,3-triazole-4-carboxylic Acid]
25 | 100 to 200 | Cc1cc(Oc2[nH]nnc2C(=O)O)ccc1-c1cnc(F)c(C)c1 [Example 86, 5-(4-(6-fluoro-5-methylpyridin-3-yl)-3-methylphenoxy)-1H-1,2,3-triazole-4-carboxylic Acid]
26 | < 100 | COc1cc(Oc2[nH]nnc2C(=O)O)ccc1Br [Example 89, 5-(4-bromo-3-methoxyphenoxy)-1H-1,2,3-triazole-4-carboxylic Acid]
27 | < 100 | COc1ccc(-c2ccc(Oc3[nH]nnc3C(=O)O)cc2OC)cn1 [Example 90, 5-(3-methoxy-4-(6-methoxypyridin-3-yl)phenoxy)-1H-1,2,3-triazole-4-carboxylic Acid]
28 | < 100 | COc1ccc(-c2ccc(Oc3[nH]nnc3C(=O)O)cc2OC)c(OC)n1 [Example 91, 5-(4-(2,6-dimethoxypyridin-3-yl)-3-methoxyphenoxy)-1H-1,2,3-triazole-4-carboxylic Acid]
29 | < 100 | O=C(O)c1nn[nH]c1Oc1ccc(-c2ccnc(F)c2)cc1 [Example 92, 5-(4-(2-fluoropyridin-4-yl)phenoxy)-1H-1,2,3-triazole-4-carboxylic Acid]
30 | < 100 | O=C(O)c1nn[nH]c1Oc1ccc(-c2cc(F)cnc2Cl)cc1 [Example 99, 5-(4-(2-chloro-5-fluoropyridin-3-yl)phenoxy)-1H-1,2,3-triazole-4-carboxylic Acid]
31 | < 100 | COc1ccc(-c2ccc(Oc3[nH]nnc3C(=O)O)cc2)c(OC)n1 [Example 101, 5-(4-(2,6-dimethoxypyridin-3-yl)phenoxy)-1H-1,2,3-triazole-4-carboxylic Acid]
32 | 100 to 200 | O=C(O)c1nn[nH]c1Oc1ccc(-c2cc(F)c(F)c(F)c2)cc1 [Example 110, 5-((3′,4′,5′-trifluoro-[1,1′-biphenyl]-4-yl)oxy)-1H-1,2,3-triazole-4-carboxylic Acid]
